The term IC50 denotes the concentration at which inhibition is half-maximal.

Molecules are shown by their SMILES.

In this assay the target is T1, Human full length PKD1 (Homo sapiens, UniProt Q15139).
T1 construct: Human full length PKD1 at ˜100 μg/mL purchased from Upstate Ltd; purchased Upstate Ltd 14-508
T1 sequence (Q15139 1-912): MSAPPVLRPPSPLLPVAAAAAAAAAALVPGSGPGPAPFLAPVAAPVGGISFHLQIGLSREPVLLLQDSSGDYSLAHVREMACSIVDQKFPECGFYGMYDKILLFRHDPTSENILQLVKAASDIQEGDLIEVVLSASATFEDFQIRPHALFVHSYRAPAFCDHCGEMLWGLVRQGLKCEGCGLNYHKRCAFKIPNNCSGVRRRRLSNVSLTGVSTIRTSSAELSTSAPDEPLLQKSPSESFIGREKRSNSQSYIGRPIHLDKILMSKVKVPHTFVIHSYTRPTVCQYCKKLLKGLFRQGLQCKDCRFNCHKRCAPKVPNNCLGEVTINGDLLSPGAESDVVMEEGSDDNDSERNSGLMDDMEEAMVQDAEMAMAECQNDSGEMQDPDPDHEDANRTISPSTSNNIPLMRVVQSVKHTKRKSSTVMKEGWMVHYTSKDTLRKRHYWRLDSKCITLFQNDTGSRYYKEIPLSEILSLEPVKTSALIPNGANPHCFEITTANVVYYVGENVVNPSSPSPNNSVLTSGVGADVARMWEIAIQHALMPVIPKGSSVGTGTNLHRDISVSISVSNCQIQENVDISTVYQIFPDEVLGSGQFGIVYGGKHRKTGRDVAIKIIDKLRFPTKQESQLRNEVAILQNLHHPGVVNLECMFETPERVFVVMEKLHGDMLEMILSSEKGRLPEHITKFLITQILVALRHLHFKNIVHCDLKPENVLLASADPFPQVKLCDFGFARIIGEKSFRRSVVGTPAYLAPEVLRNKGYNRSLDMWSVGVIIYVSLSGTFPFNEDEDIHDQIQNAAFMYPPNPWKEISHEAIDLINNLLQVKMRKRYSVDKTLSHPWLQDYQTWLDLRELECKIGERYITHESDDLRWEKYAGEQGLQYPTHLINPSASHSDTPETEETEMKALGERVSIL
The assay can be described thus: PKD1 (Human Full Length) Enzyme Activity Assay (IMAP fluorescence polarisation). It is filed as biochemical. The following applies: 10 μM ATP, 10 point dose-response. The protocol: PKD1 (Human Full Length) Enzyme Activity Assay
Kinase Assay Reaction Buffer: This consisted of 0.22 μM filtered 25 mM HEPES and 2 mM MgCl2 pH 7.5.
Kinase Enzyme Human full length PKD1 at ˜100 μg/mL purchased from Upstate Ltd (Product code 14-508) was obtained from aliquots stored at −70° C. It was prepared with a final concentration of 0.3 μg/mL by diluting 1:300 in Reaction Buffer (30 μL per 9 mL-5 mL per plate with an additional 4 mL dead volume) and vortexing prior to use.
Substrate: Fluorescein labelled glycogen synthase-derived peptide (FI)-KKLNRTLSVA (also known as MAPKAP K2 substrate) was obtained from Molecular Devices (Product code R7127). […]
The fluorescence polarisation of the substrate in each well was recorded using an analyst microplate reader (Molecular Devices) with a single read at Ex485 Em535 (Analyst settings: Z Height 5 mm, G Factor 0.95, Reads/well 1, Integration 100000 μs, Gain Sensitivity 2).
Percentage inhibition was calculated based on activity of the test sample minus the average values in the blank wells relative to the average values measured in control wells minus the average values in the blank wells.
IC50 values were calculated from 10 point dose sigmoid ‘dose-response’ curves using XIfit software (IDBS inc, USA). […]
Background: In fluorescence polarisation assays a small probe gives low polarisation when free and higher when bound to something large.

As for `CC[C@@H](N)CN(C)c1ccnc(-c2cc(Cl)ccc2O)n1` [XX-276, 2-{4-[((R)-2-Amino-butyl)-methyl-amino]-pyrimidin-2-yl}-4-chloro-phenol], the IC50 was found to be 0.9 nM.

The values above are taken from US20090247519A1, “AMINO-ETHYL-AMINO-ARYL (AEAA) COMPOUNDS AND THEIR USE” (priority 2006, published 2009).
